O=C(Nc1ccccc1-c1ccc(Cl)cc1)c1cccnc1Cl
solubility (mole fraction)
Settings | 288.15 K | 293.15 K | 298.15 K | 303.15 K | 308.15 K | 313.15 K
in ethanol | 0.00163 | 0.00194 | 0.0023 | 0.00282 | 0.00346 | 0.00428
in ethyl acetate | 0.0076 | 0.00879 | 0.0102 | 0.0117 | 0.0141 | 0.0168
in isopropanol | 0.000816 | 0.000983 | 0.00124 | 0.00162 | 0.002 | 0.00251
in methanol | 0.00186 | 0.0022 | 0.0026 | 0.00315 | 0.00394 | 0.0047
in n-propyl acetate | 0.00718 | 0.00822 | 0.00943 | 0.0112 | 0.0135 | 0.016
